This is an account of results in patent publication US6218393A, “Anthranilic acid derivatives as multi drug resistance modulators” (priority 1997, dated 2001).

Assay [1] concerns AR 1.0 cells. Briefly: Potentiation index with doxorubicin titration. Format: cell-based, mouse. The conditions noted are these: for Potentiation Index at RMA concentration 30 nM: Table C1, RMA 30 nM; for Potentiation Index at RMA concentration 50 nM: Table C1, RMA 50 nM; for Potentiation Index at RMA concentration 100 nM: Table C1, RMA 100 nM; for Potentiation Index at RMA concentration 10 nM: Table C1, RMA 10 nM. The method, then:
The EMT6 mouse mammary carcinoma cell line and the MDR resistant subline AR 1.0 were cultured in RPMI 1640 medium containing 10% foetal calf serum and 2 mM glutamine at 37° C. in 5% CO2. Cells were passaged between 1 in 200 and 1 in 2000 in the case of the parental cell line and between 1 in 20 and 1 in 200 in the case of the MDR resistant subline, after trypsinisation (0.25% trypsin, 0.2 gl^-1, EDTA). […]
(b) Cells were cultured for four days with a titration of doxorubicin (0.263 nM-17.24 μM) in the presence of a fixed concentration of each compound. Proliferation was quantified as described by Skehen et al, loc cit. The IC50 (concentration required to reduce proliferation to 50% of the untreated controls) for doxorubicin alone and with each compound were derived and used to calculate the potentiation index (PI): [formula]

Assay [2] deals with AR 1.0 cells. Briefly: Drug accumulation assay: daunorubicin accumulation in AR 1.0 cells. Conditions: Mus musculus, 100% = accumulation with verapamil 100 μM, 1 hr, 37° C. Format: cell-based. An outline of the steps:
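Daunorubicin accumulation was measured in cells plated 48 h beforehand. These were AR 1.0 cells, an MDR-resistant derivative of mouse EMT6 mammary carcinoma, cultured at 37 °C in 5% CO2 in RPMI 1640 plus 10% foetal calf serum and 2 mM glutamine.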

In general, IC50 refers to the midpoint of a concentration-inhibition curve.

Molecules are shown by their SMILES.

For `COc1cc2c(cc1OC)CN(CCc1ccc(NC(=O)c3ccccc3NC(=O)c3coc(C)n3)cc1)CC2` [compound 9638, 2-Methyl-oxazole-4-carboxylic acid (2-{4-[2-(6,7-dimethoxy-3,4-dihydro-1H-isoquinolin-2-yl)-ethyl]-phenylcarbamoyl}-phenyl)-amide], in the assay with AR 1.0 cells [1], the “Potentiation Index at RMA concentration 30 nM” value came out at 1.1, the “Potentiation Index at RMA concentration 50 nM” value was determined as 1.5 and the “Potentiation Index at RMA concentration 100 nM” value is given as 2.6. In addition, in the assay with AR 1.0 cells [2], half-maximal inhibition (IC50) was put at 552 nM.
With `COc1cc2c(cc1OC)CN(CCOc1ccc(NC(=O)c3ccccc3NC(=O)c3cnc4ccccc4n3)cc1)CC2` [compound 9632, Quinoxaline-2-carboxylic acid (2-{4-[2-(6,7-dimethoxy-3,4-dihydro-1H-isoquinolin-2-yl)-ethoxy]-phenylcarbamoyl}-phenyl)-amide], in the assay on AR 1.0 cells [1], the “Potentiation Index at RMA concentration 10 nM” value was 1.1, the “Potentiation Index at RMA concentration 30 nM” value was found to be 2.1, the “Potentiation Index at RMA concentration 50 nM” value turned out to be 2.7 and the “Potentiation Index at RMA concentration 100 nM” value is listed as 8. Moreover, half-maximal inhibition with AR 1.0 cells [2] (IC50) was put at 431 nM.
For `COc1ccc(CN(C)Cc2ccc(NC(=O)c3ccccc3NC(=O)c3cccnc3)cc2)cc1OC(C)C` [compound 9661, N-[2-(4-{[(3-Isopropoxy-4-methoxy-benzyl)-methyl-amino]-methyl}-phenylcarbamoyl)-phenyl]-nicotinamide], in the assay on AR 1.0 cells [1], the “Potentiation Index at RMA concentration 10 nM” value is 1.2, the “Potentiation Index at RMA concentration 30 nM” value is on record as 38, the “Potentiation Index at RMA concentration 50 nM” value was 71 and the “Potentiation Index at RMA concentration 100 nM” value amounted to 195. Besides, the IC50 in the assay with AR 1.0 cells [2] amounted to 362 nM.
In the case of `COc1cc2c(cc1OC)CN(CCc1ccc(NC(=O)c3cc(N(C)C)ccc3NC(=O)c3cnc4ccccc4c3)cc1)CC2` [compound 9595, Quinoline-3-carboxylic acid (2-{4-[2-(6,7-dimethoxy-3,4-dihydro-1H-isoquinolin-2-yl)-ethyl]-phenylcarbamoyl}-4-dimethylamino-phenyl)-amide], in the assay with AR 1.0 cells [1], the “Potentiation Index at RMA concentration 10 nM” value amounted to 1.45, the “Potentiation Index at RMA concentration 30 nM” value is listed as 1.93, the “Potentiation Index at RMA concentration 50 nM” value was 2.99 and the “Potentiation Index at RMA concentration 100 nM” value is reported as 45. The IC50 in the assay on AR 1.0 cells [2] came to 370 nM.
For the molecule `COc1cc2c(cc1OC)CN(CC(O)COc1ccc(NC(=O)c3ccccc3NC(=O)c3cnc4ccccc4c3)cc1)CC2` (stereo not drawn) [compound 9648, Quinoline-3-carboxylic acid (2-{4-[3-(6,7-dimethoxy-3,4-dihydro-1H-isoquinolin-2-yl)-2-hydroxy-propoxy]-phenylcarbamoyl}-phenyl)-amide], in the assay with AR 1.0 cells [1], the “Potentiation Index at RMA concentration 10 nM” value was found to be 16 and the “Potentiation Index at RMA concentration 30 nM” value was 34. Further, the IC50 in the assay on AR 1.0 cells [2] is 38 nM.
As for `COc1cc2c(cc1OC)CN(CCc1ccc(NC(=O)c3ccccc3NC(=O)c3csc(C)n3)cc1)CC2` [compound 9635, 2-Methyl-thiazole-4-carboxylic acid (2-{4-[2-(6,7-dimethoxy-3,4-dihydro-1H-isoquinolin-2-yl)-ethyl]-phenylcarbamoyl}-phenyl)-amide], in the assay with AR 1.0 cells [1], the “Potentiation Index at RMA concentration 30 nM” value is 1.3, the “Potentiation Index at RMA concentration 50 nM” value turned out to be 2 and the “Potentiation Index at RMA concentration 100 nM” value turned out to be 7. Moreover, in the assay with AR 1.0 cells [2], the IC50 is 669 nM.
With `O=C(Nc1ccccc1C(=O)Nc1ccc(CCN2Cc3ccccc3C2)cc1)c1cnc2ccccc2c1` [compound 9626, Quinoline-3-carboxylic acid (2-{4-[2-(1,3-dihydro-isoindol-2-yl)-ethyl]-phenylcarbamoyl}-phenyl)-amide], in the assay on AR 1.0 cells [1], the “Potentiation Index at RMA concentration 10 nM” value is 1.2, the “Potentiation Index at RMA concentration 30 nM” value is 4, the “Potentiation Index at RMA concentration 50 nM” value came to 8 and the “Potentiation Index at RMA concentration 100 nM” value is given as 27. For the same molecule, in the assay with AR 1.0 cells [2], the IC50 turned out to be 278 nM.
As for `COc1cc(CN(C)CCc2ccc(NC(=O)c3ccccc3NC(=O)c3cnc4ccccc4c3)cc2)ccc1OC(C)C` [compound 9646, Quinoline-3-carboxylic acid [2-(4-{2-[(4-isopropoxy-3-methoxy-benzyl)-methyl-amino]-ethyl}-phenylcarbamoyl)-phenyl]-amide], in the assay with AR 1.0 cells [1], the “Potentiation Index at RMA concentration 10 nM” value is 1.0, the “Potentiation Index at RMA concentration 30 nM” value is given as 1.1, the “Potentiation Index at RMA concentration 50 nM” value turned out to be 1.3 and the “Potentiation Index at RMA concentration 100 nM” value is listed as 4.8. The molecule also showed an IC50 in the assay with AR 1.0 cells [2] of 295 nM.
As to `COc1cc(CN(C)CCc2ccc(NC(=O)c3ccccc3NC(=O)c3cnc4ccccc4c3)cc2)ccc1O` [compound 9649, Quinoline-3-carboxylic acid [2-(4-{2-[(4-hydroxy-3-methoxy-benzyl)-methyl-amino]-ethyl}phenylcarbamoyl)-phenyl]-amide], in the assay with AR 1.0 cells [1], the “Potentiation Index at RMA concentration 10 nM” value was 53, the “Potentiation Index at RMA concentration 30 nM” value is 46, the “Potentiation Index at RMA concentration 50 nM” value amounted to 60 and the “Potentiation Index at RMA concentration 100 nM” value came out at 66. This molecule also registered an IC50 in the assay on AR 1.0 cells [2] of 188 nM.
Regarding `COc1ccc(CN(C)CCc2ccc(NC(=O)c3ccccc3NC(=O)c3cnc4ccccc4c3)cc2)cc1O` [compound 9647, Quinoline-3-carboxylic acid [2-(4-{2-[(3-hydroxy-4-methoxy-benzyl)-methyl-amino]-ethyl}-phenylcarbamoyl)-phenyl]-amide], in the assay on AR 1.0 cells [1], the “Potentiation Index at RMA concentration 50 nM” value is 1 and the “Potentiation Index at RMA concentration 100 nM” value was found to be 6. The IC50 with AR 1.0 cells [2] came to 33 nM.
As for `COc1cc2c(cc1OC)CN(CCNC(=O)c1ccccc1NC(=O)c1ccc(-c3ccccc3)cc1)CC2` [compound 9294, Biphenyl-4-carboxylic acid {2-[2-(6,7-dimethoxy-3,4-dihydro-1H-isoquinolin-2-yl)-ethylcarbamoyl]-phenyl}-amide], the “Potentiation Index at RMA concentration 300 nM” value in the assay with AR 1.0 cells [1] (Table C2, RMA 300 nM) turned out to be 18. In addition, the “Potentiation Index at RMA concentration 500 nM” value with AR 1.0 cells [1] (Table C2, RMA 500 nM) worked out at 71. The molecule also came in with an IC50 in the assay on AR 1.0 cells [2] of 400 nM.
On to `COc1cc2c(cc1OC)CN(CCc1ccc(NC(=O)c3ccccc3NC(=O)c3cnc4ccccc4c3)c(C)c1)CC2` [compound 9650, Quinoline-3-carboxylic acid (2-{4-[2-(6,7-dimethoxy-3,4-dihydro-1H-isoquinolin-2-yl)-ethyl]-2-methyl-phenylcarbamoyl}-phenyl)-amide], for which, in the assay with AR 1.0 cells [1], the “Potentiation Index at RMA concentration 10 nM” value worked out at 3, the “Potentiation Index at RMA concentration 30 nM” value was 3, the “Potentiation Index at RMA concentration 50 nM” value is recorded as 14 and the “Potentiation Index at RMA concentration 100 nM” value was found to be 33. Moreover, the half-inhibitory concentration (IC50) in the assay on AR 1.0 cells [2] was determined as 61 nM.
Regarding `CCOc1cc2c(cc1OCC)CN(CCc1ccc(NC(=O)c3ccccc3NC(=O)c3cnc4ccccc4c3)cc1)CC2` [compound 9665, Quinoline-3-carboxylic acid (2-{4-[2-(6,7-diethoxy-3,4-dihydro-1H-isoquinolin-2-yl)-ethyl]-phenylcarbamoyl}-phenyl)-amide], in the assay with AR 1.0 cells [1], the “Potentiation Index at RMA concentration 10 nM” value is listed as 1.4, the “Potentiation Index at RMA concentration 30 nM” value is 7, the “Potentiation Index at RMA concentration 50 nM” value amounted to 28 and the “Potentiation Index at RMA concentration 100 nM” value turned out to be 50. For the same molecule, 389 nM corresponded to half-maximal inhibition in the assay with AR 1.0 cells [2] (IC50).
